Test results reported in ChEMBL document CHEMBL1147549, “Imidazole acetic acid TAFIa inhibitors: SAR studies centered around the basic P(1)(') group” (Bioorg Med Chem Lett, 2004).
pIC50: −log10 of the molar value.

Columns and labels:
Carboxypeptidase B2 = molecular target: T1, Carboxypeptidase B2 (Homo sapiens, UniProt Q96IY4); experiment: Inhibitory potency against human TAFIa (thrombin-activatable fibrinolysis inhibitor)
T1 sequence (Q96IY4 whole entry): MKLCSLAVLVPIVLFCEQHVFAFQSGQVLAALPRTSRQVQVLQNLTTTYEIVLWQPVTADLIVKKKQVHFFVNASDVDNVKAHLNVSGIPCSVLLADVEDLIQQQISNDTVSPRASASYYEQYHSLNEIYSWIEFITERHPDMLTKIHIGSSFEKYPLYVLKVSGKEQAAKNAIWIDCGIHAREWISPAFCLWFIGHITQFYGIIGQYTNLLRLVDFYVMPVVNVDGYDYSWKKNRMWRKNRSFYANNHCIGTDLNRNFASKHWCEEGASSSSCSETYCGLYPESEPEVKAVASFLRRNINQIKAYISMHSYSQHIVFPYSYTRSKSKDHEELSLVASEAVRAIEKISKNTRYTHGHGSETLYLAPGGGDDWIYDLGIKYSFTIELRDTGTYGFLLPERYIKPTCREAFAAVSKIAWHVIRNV

Carboxypeptidase B = molecular target: T2, Carboxypeptidase B (Homo sapiens, UniProt P15086); experiment: Inhibition of human carboxypeptidase B (CPB)
T2 sequence (P15086 whole entry): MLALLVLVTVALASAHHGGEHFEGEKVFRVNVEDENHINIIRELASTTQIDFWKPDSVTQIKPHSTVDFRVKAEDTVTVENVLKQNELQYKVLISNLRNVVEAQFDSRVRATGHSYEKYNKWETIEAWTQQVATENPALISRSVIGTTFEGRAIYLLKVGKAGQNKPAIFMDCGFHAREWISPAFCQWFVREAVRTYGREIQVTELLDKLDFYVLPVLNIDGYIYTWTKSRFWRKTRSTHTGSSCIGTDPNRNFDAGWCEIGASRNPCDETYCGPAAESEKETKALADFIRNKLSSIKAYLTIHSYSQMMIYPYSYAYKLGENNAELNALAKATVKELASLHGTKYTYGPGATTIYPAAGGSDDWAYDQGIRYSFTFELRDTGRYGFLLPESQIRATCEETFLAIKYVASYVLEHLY

[1] = Concentration providing 50% acceleration of clot lysis in pooled human plasma; assay type: functional
Homo sapiens = species on record: Homo sapiens; experiment: Selectivity for TAFIa versus CPB carboxypeptidase B isoforms

Cc1cc(N)ncc1CC(C(=O)O)c1c[nH]cn1 (configuration not stated)
pIC50 (Carboxypeptidase B2): 5.82

CC(CN)CCC(C(=O)O)c1cnc[nH]1 (configuration not stated)
pIC50 (Carboxypeptidase B2): 6.57
pIC50 (Carboxypeptidase B): 5.82

Cc1cc(CC(C(=O)O)c2cn(CCC(C)(C)C)cn2)cnc1N (configuration not stated)
pIC50 (Carboxypeptidase B2): 7.92
pIC50 (Carboxypeptidase B): 9.00
CLT50 [1]: 0.159 µM
Selectivity (Homo sapiens): 0.08

NCCCC(C(=O)O)c1cnc[nH]1 (configuration not stated)
pIC50 (Carboxypeptidase B2): 5.17

CC(CN)CCC(C(=O)O)c1c[nH]cn1 (configuration not stated)
Selectivity (Homo sapiens): 5.6

Nc1ncc(CC(C(=O)O)c2c[nH]cn2)cc1F (configuration not stated)
pIC50 (Carboxypeptidase B2): 5.17

Nc1ncc(CC(C(=O)O)c2cnc[nH]2)cc1Cl (configuration not stated)
pIC50 (Carboxypeptidase B2): 5.28

CC(C)(C)CCn1cnc(C(C[C@H]2CC[C@H](N)C2)C(=O)O)c1 (some centres not stated)
pIC50 (Carboxypeptidase B2): 9.00
pIC50 (Carboxypeptidase B): 9.00
CLT50 [1]: 0.014 µM
Selectivity (Homo sapiens): 1

O=C(O)C(CCC1CNC1)c1cnc[nH]1 (configuration not stated)
pIC50 (Carboxypeptidase B2): < 4.70

Cc1cc(CC(C(=O)O)c2cn(CCC(C)C)cn2)cnc1N (configuration not stated)
pIC50 (Carboxypeptidase B2): 7.64
pIC50 (Carboxypeptidase B): 9.00
CLT50 [1]: 0.17 µM
Selectivity (Homo sapiens): 0.04

O=C(O)C(CCC1CCNCC1)c1c[nH]cn1 (configuration not stated)
pIC50 (Carboxypeptidase B2): < 4.70

NCCCCCC(C(=O)O)c1cnc[nH]1 (configuration not stated)
pIC50 (Carboxypeptidase B2): 5.33

Nc1ncc(CC(C(=O)O)c2c[nH]cn2)cn1 (configuration not stated)
pIC50 (Carboxypeptidase B2): 4.17

NC1CCC(CC(C(=O)O)c2cnc[nH]2)CC1 (configuration not stated)
pIC50 (Carboxypeptidase B2): 5.15

CNCCCCC(C(=O)O)c1cnc[nH]1 (configuration not stated)
pIC50 (Carboxypeptidase B2): 4.59

O=C(O)C(CCC1CCCNCC1)c1cnc[nH]1 (configuration not stated)
pIC50 (Carboxypeptidase B2): < 4.70

CNc1ccc(CC(C(=O)O)c2cnc[nH]2)cn1 (configuration not stated)
pIC50 (Carboxypeptidase B2): 4.89

NC1CCCC(CC(C(=O)O)c2c[nH]cn2)C1 (configuration not stated)
pIC50 (Carboxypeptidase B2): < 4.70

O=C(O)C(CCC1CCNC1)c1cnc[nH]1 (configuration not stated)
pIC50 (Carboxypeptidase B2): < 4.70

Nc1cc(CC(C(=O)O)c2c[nH]cn2)ccn1 (configuration not stated)
pIC50 (Carboxypeptidase B2): 4.92

NCCCCC(C(=O)O)c1c[nH]cn1 (configuration not stated)
pIC50 (Carboxypeptidase B2): 6.23
pIC50 (Carboxypeptidase B): 5.43
CLT50 [1]: >=20 uM
Selectivity (Homo sapiens): 6.3

Cc1nc(N)ccc1CC(C(=O)O)c1c[nH]cn1 (configuration not stated)
pIC50 (Carboxypeptidase B2): 5.24

Nc1cccc(CC(C(=O)O)c2cnc[nH]2)n1 (configuration not stated)
pIC50 (Carboxypeptidase B2): 4.82

CC(C)CCn1cnc(C(Cc2ccc(N)nc2)C(=O)O)c1 (configuration not stated)
pIC50 (Carboxypeptidase B): 8.40
CLT50 [1]: ==0.12 uM

CC(C)(CN)CCC(C(=O)O)c1c[nH]cn1 (configuration not stated)
pIC50 (Carboxypeptidase B2): 6.42
pIC50 (Carboxypeptidase B): 6.22
Selectivity (Homo sapiens): 1.6

Nc1ccc(CC(C(=O)O)c2c[nH]cn2)cn1 (configuration not stated)
pIC50 (Carboxypeptidase B): 7.15
CLT50 [1]: 0.97 µM

O=C(O)C(CC1CCNC1)c1c[nH]cn1 (configuration not stated)
pIC50 (Carboxypeptidase B2): < 4.70

O=C(O)C(CC1CNC1)c1cnc[nH]1 (configuration not stated)
pIC50 (Carboxypeptidase B2): < 4.70

O=C(O)C(CC1CCNCC1)c1cnc[nH]1 (configuration not stated)
pIC50 (Carboxypeptidase B2): < 4.70

CC(C)CCn1cnc(C(CCCCN)C(=O)O)c1 (configuration not stated)
pIC50 (Carboxypeptidase B2): 7.62
pIC50 (Carboxypeptidase B): 6.80
CLT50 [1]: 0.21 µM
Selectivity (Homo sapiens): 6.7

O=C(O)C(Cc1ccc2nccn2c1)c1cnc[nH]1 (configuration not stated)
pIC50 (Carboxypeptidase B2): 5.48

Cc1cc(CC(C(=O)O)c2c[nH]cn2)cnc1N (configuration not stated)
pIC50 (Carboxypeptidase B2): 7.00
pIC50 (Carboxypeptidase B): 7.70
CLT50 [1]: 2.1 µM
Selectivity (Homo sapiens): 0.2

O=C(O)C(CC1CCCNCC1)c1c[nH]cn1 (configuration not stated)
pIC50 (Carboxypeptidase B2): < 4.70

CN(C)CCCCC(C(=O)O)c1cnc[nH]1 (configuration not stated)
pIC50 (Carboxypeptidase B2): < 4.30
